Experimental data published in paper PMC4249827, “A Novel CMKLR1 Small Molecule Antagonist Suppresses CNS Autoimmune Inflammatory Disease” (PLoS ONE, 2014).
Like-named read-outs stand apart in the source and are kept apart here.

Tests used:
C57BL/6 mice [1] = experiment: Preliminary in vivo toxicity, daily s.c. dosing for 16 days; set-up: species or system mouse; conditions: s.c. daily for 16 days, doses up to at least 10 mg/kg per day
Excerpt: Given the lack of adverse reactions in vivo, we next sought to test α-NETA for in vivo efficacy in the EAE model of MS.
The mice were then euthanized and vital organs weighed. Each symbol represents an individual mouse, and the bars indicate mean ± SEM, n = 3 mice per group. […] Control mice received either captisol vehicle or no treatment. […] For days 1–15, n = 52 mice per group; for days 16–27, n = 24–25 mice per group. * p<0.05 by Mann-Whitney U test.

C57BL/6 mice [2] = experiment: EAE induced by adoptive transfer of MOG-reactive lymphocytes in C57BL/6 mice; assay type: in vivo, mouse
CCRL2 KO mice = experiment: EAE induced by active immunization in CCRL2 KO mice; assay type: in vivo, mouse
CMKLR1 KO mice = experiment: EAE induced by active immunization in CMKLR1 KO mice; assay type: in vivo, mouse; conditions: 10 mg/kg daily s.c.
[3] = within 5 min; depending on the temperature of incubation
[4] = mouse
[5] = molecular target: Aldehyde dehydrogenase 1 family, member A1 (ALDH1A1); set-up: method as in PubChem, 2014b; ref 22; conditions: Purified enzyme; ref PubChem, 2014b; cited from earlier work
[6] = molecular target: G9a histone lysine methyltransferase; set-up: method as in PubChem, 2014b; ref 23; conditions: Purified enzyme; ref PubChem, 2014b; cited from earlier work
Vitamin D receptor = molecular target: Vitamin D receptor; set-up: method as in PubChem, 2014a; conditions: Purified protein (binding); ref PubChem, 2014a; cited from earlier work
[7] = tested on: Marburg virus binding/entry; conditions: Cell-based; ref PubChem, 2014b; cited from earlier work
IL-6/STAT signaling = tested on: IL-6/STAT signaling; set-up: method as in PubChem, 2014a; conditions: Cell-based; ref PubChem, 2014a; cited from earlier work
[8] = tested on: Lassa virus binding/entry; conditions: Cell-based; ref PubChem, 2014b; cited from earlier work
[9] = tested on: Bacillus anthracis lethal toxin; conditions: Cell-based (process); ref PubChem, 2014a; cited from earlier work
GPR154 = tested on: GPR154; set-up: method as in PubChem, 2014b; ref 24; conditions: Cell-based (GPCR); neuropeptide S-induced signaling; ref PubChem, 2014b; cited from earlier work
Acetylcholinesterase = molecular target: Acetylcholinesterase; set-up: method as in Sastry et al., 1988a; ref 19; conditions: Purified enzyme; ref Sastry et al., 1988a; cited from earlier work
[10] = tested on: Acetylcholine muscarinic M1 receptor; set-up: method as in PubChem, 2014a; ref 25; conditions: Cell-based (GPCR); Tested up to 35 µM; ref PubChem, 2014a; cited from earlier work
[11] = tested on: carnitine acetyletransferase; set-up: method as in PMID 3174803; conditions: cited from earlier work
Cytochrome p450 3A4 = conditions: cited from earlier work
Cytochrome p450 1A2 = conditions: cited from earlier work
CCR9 = CCR9 (Homo sapiens, UniProt P51686); experiment: Transwell chemotaxis of CCR9+ MOLT-4 cells to CCL25
mCMKLR1 = molecular target: T1, mCMKLR1 (Mus musculus, UniProt P97468); experiment: Transwell chemotaxis of mCMKLR1/L1.2 transfectants to chemerin
T1 sequence (P97468 1-371): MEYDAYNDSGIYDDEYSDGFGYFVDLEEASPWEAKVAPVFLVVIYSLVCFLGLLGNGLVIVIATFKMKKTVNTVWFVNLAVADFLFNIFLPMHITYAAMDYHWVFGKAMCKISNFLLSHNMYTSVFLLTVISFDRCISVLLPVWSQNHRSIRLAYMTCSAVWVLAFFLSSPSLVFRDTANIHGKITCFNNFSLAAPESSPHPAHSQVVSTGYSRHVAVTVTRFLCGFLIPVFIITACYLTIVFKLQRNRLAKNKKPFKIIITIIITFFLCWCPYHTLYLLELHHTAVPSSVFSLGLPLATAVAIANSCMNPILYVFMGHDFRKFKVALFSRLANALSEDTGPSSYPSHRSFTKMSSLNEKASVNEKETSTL

huCMKLR1 = molecular target: T2, huCMKLR1 (Homo sapiens, UniProt Q99788); experiment: Transwell chemotaxis of huCMKLR1/L1.2 transfectants to chemerin
T2 sequence (Q99788 1-373): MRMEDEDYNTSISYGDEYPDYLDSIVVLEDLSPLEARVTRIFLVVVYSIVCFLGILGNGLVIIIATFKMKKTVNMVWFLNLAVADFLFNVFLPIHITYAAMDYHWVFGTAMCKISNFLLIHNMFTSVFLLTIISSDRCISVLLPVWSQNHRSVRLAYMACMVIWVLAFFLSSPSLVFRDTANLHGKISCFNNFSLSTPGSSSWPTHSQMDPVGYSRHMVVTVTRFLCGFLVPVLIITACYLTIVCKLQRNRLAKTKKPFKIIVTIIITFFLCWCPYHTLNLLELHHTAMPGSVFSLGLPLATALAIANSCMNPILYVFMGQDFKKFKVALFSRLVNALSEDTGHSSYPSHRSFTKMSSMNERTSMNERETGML

CCR9, sequence (P51686 whole entry): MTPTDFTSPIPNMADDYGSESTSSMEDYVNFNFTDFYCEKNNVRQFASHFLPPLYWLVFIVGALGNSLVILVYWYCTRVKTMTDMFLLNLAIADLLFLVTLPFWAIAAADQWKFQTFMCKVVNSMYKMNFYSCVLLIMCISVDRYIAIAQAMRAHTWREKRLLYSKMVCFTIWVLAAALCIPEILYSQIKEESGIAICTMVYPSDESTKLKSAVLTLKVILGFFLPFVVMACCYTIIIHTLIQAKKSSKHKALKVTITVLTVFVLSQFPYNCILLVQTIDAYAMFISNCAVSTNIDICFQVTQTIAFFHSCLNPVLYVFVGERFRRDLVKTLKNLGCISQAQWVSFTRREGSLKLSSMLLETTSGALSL

## C[N+](C)(C)CCC(=O)c1cccc2ccccc12.[I-] [α-NETA, 2-(α-naphthoyl)ethyltrimethylammonium iodide]
C57BL/6 mice [1]
  in vivo tolerability (survival, weight gain, appearance, behavior, organ wet weight): well tolerated
C57BL/6 mice [2]; 10 mg/kg daily s.c.
  suppression of clinical signs beyond first appearance of disease in control mice: completely suppressed clinical signs for an average of six days
C57BL/6 mice [2]; 10 mg/kg daily s.c., day 15–19
  severity of clinical disease: significantly reduced
C57BL/6 mice [2]; 10 mg/kg daily s.c., did not reach statistical significance
  reduction of the incidence of EAE by day 24: ~25%
C57BL/6 mice [2]; donor mice treated once daily for ten days
  ability of MOG-reactive lymphocytes from treated donor mice to induce EAE by passive transfer: fully capable of inducing EAE by passive transfer
CCRL2 KO mice; 10 mg/kg daily s.c.
  suppression of clinical signs beyond first appearance of disease in control CCRL2 KO mice: completely and significantly suppressed clinical signs for an average of four days
CCRL2 KO mice; CCRL2 KO mice, 10 mg/kg daily s.c.
  treated mice that did not develop EAE by day 20: 40%
CCRL2 KO mice; CCRL2 KO mice, days 8-15 (except for day 10)
  severity of clinical disease: significantly reduced
CMKLR1 KO mice; not statistically significant
  disease incidence by day 20: 40%
CMKLR1 KO mice; only animals that developed EAE, not significant (p = 0.18)
  Mean day of onset (SEM): 14.3 (1.5) ^ns
[3]
  parent compound no longer detectable by mass spectrometry after dissolution in 10% captisol: 40–60%
[4]; iv, 0.5 mg/kg
  detection of parent compound after in vivo dosing: unable to detect any of the parent compound
[4]; sc, 10 mg/kg
  detection of parent compound after in vivo dosing: unable to detect any of the parent compound
[5]
  IC50: 0.04 µM
[6]
  IC50: 0.5 µM
Vitamin D receptor
  IC50: 2 µM
[7]
  IC50: 4.5 µM
IL-6/STAT signaling
  IC50: 6.3 µM
[8]
  IC50: 10 µM
[9]
  IC50: 25 µM
GPR154
  IC50: 32 µM
Acetylcholinesterase
  IC50: 300 µM
[10]
  IC50 (µM), Acetylcholine muscarinic M1 receptor: Inactive ^k
[11]
  activity against carnitine acetyletransferase: inactive
Cytochrome p450 3A4
  IC50: 0.2 µM
Cytochrome p450 1A2
  IC50: 8 µM
CCR9
  IC50: ≥ 10 µM
CCR9; 1, 3, and 10 µM
  inhibition of migration of CCR9+ MOLT4 cells to CCL25: did not inhibit
mCMKLR1
  IC50: 5 ± 0.4 µM
huCMKLR1
  IC50: 6.5 ± 0.7 µM
